Like-named read-outs stand apart in the source and are kept apart here.
How the values were obtained:
PKC isoenzyme δ = molecular target: T1, PKC isoenzyme δ (Homo sapiens, UniProt Q05655); experiment: Protein kinase C inhibition assay, PKC isoenzyme δ; type: biochemical; details: read-out: IC50 PKC δ
T1 construct: made in house; host or cells: baculovirus-insect cell expression system
Experimental: (§1) A protein kinase C (PKC) assay is designed to duplicate the in vivo conditions required for protein kinase C function. Therefore, pH, salt and cofactor concentrations are similar to physiologic levels. Either lysine rich histone H1 (H1) or Myelin basic protein (Mbp) are used in the assay as the phosphorylation acceptor-protein because they are readily available and serve as good substrates for protein kinase C. Enzyme was prepared from baculovirus-insect cell expression systems.
(§2) In the screening assay, phosphatidylserine (PS) and DAG were co-sonicated to form unilamellar and multilamellar vesicles. The concentration of lipids in the assay were suboptimal to maximize the detection potential of the assay for inhibitors or activators. Potential effector compounds were added to the assay in dimethylsulfoxide at four concentrations to give final inhibitor concentrations of 1, 10, 50, and 150 μM, respectively.
(§3) The assay was started with the addition of enzyme and stopped after 10 min by the addition of 25% trichloroacetic acid (TCA) and 1.0 mg/ml bovine serum albumin (BSA). The radioactive histone product was retained and washed on glass fiber filters that allow the unreacted P-ATP to pass through. The amount of phosphorylation was determined by measuring radioactivity with a scintillation counter. Controls were included in every assay to measure background activity in the absence of enzyme, activity in the absence of lipids, and the maximum enzyme activity with saturating levels of the activator lipids.
(§4) Results of the protein kinase C assay are shown in Table 4 in columns labeled α, βII, γ, δ, ε, and .zeta. which represent various PKC isoenzymes. Results are show as IC50, which is the concentration of test compound needed to inhibit 50% of the protein kinase C activity in controls.

PKC isoenzyme α = molecular target: T2, PKC isoenzyme α (Homo sapiens, UniProt P17252); experiment: Protein kinase C inhibition assay, PKC isoenzyme α; type: biochemical; details: read-out: IC50 PKC α
T2 construct: made in house; host or cells: baculovirus-insect cell expression system
Experimental: as §1, §2, §3, §4

[1] = system: normal human epidermal keratinocyte (NHEK) cells; experiment: Human Keratinocyte Inhibition (3H TdR Assay); type: cell-based; details: 24 h incubation, 3H-thymidine
Experimental: Proliferating normal human epidermal keratinocyte (NHEK) cells were obtained in the second passage and grown in keratinocyte growth medium, KGM (Clonetics, Inc.) at 37° C., 5% CO2. The cells were trypsinized (0.25%), centrifuged, counted with a hemocytometer, and seeded at a concentration of 5000 cells in 100 μl well in a 96-well microtiter plate.
After the cells were allowed to attach to the microtiter plate overnight, test agents were titrated to determine the dose response. This was done by adding each test agent dilution in quadruplicate to the plate at 2× final concentration in 100 μl to bring the total volume of each well to 200 μl. Culture media with no test agent added was used as a normal control. Duplicate sets of plates were established.
After twenty-four hours of incubation with test compounds 37° C. and 5% CO2, […] of 0.01 mCi/ml tritiated thymidine (New England Nuclear) was added to each well and allowed to incubate for another 4 hours under the same conditions.
Supernatant was aspirated and discarded and […] of 0.05% trypsin (Gibco) was added to each cell. Cells were checked microscopically to determine detachment from surfaces and then harvested onto glass filters. The filters were then placed in vials to which scintillant was added and counted for one minute each in a scintillation counter.
Determine mean cpm of wells containing test agent (n=4) or KGM control (n=16). Calculate % of control by the formula: [formula]
The IC50, or connection necessary to inhibit 50% of control, of each test agent was determined by plotting % control vs log concentration for each dilution and then linear forecasting the 50% control value onto the X axis on a Quatro Pro computer program. Only regression values with a correlation coefficient greater than 0.9 were considered acceptable.

PKC isoenzyme γ = molecular target: T3, PKC isoenzyme γ (Homo sapiens, UniProt P05129); experiment: Protein kinase C inhibition assay, PKC isoenzyme γ; type: biochemical; details: read-out: IC50 PKC γ
T3 construct: made in house; host or cells: baculovirus-insect cell expression system
Experimental: as §1, §2, §3, §4

PKC isoenzyme βII = molecular target: T4, PKC isoenzyme βII (Homo sapiens, UniProt P05771); experiment: Protein kinase C inhibition assay, PKC isoenzyme βII; type: biochemical; details: read-out: IC50 PKC βII
T4 construct: made in house; host or cells: baculovirus-insect cell expression system
T4 sequence (P05771 1-673 isoform P05771-2): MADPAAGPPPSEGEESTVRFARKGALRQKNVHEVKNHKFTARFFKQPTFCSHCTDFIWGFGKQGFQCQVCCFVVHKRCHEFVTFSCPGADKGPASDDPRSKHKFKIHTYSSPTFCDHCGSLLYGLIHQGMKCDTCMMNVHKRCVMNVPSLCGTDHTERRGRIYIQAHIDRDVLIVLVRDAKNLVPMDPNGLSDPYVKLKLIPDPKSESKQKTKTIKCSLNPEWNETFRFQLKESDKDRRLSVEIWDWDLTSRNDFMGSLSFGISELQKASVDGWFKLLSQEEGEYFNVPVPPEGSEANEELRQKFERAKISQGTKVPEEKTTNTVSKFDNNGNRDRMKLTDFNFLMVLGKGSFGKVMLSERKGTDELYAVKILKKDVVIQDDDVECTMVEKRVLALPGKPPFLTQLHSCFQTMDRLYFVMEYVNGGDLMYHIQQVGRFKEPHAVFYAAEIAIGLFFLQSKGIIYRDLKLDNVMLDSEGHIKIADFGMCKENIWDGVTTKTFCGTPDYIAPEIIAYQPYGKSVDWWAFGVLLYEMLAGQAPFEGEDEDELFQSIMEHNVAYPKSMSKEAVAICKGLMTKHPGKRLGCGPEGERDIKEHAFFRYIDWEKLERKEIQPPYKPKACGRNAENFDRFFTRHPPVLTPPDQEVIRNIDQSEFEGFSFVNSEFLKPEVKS
Experimental: as §1, §2, §3, §4

PKC isoenzyme ε = molecular target: T5, PKC isoenzyme ε (Homo sapiens, UniProt Q02156); experiment: Protein kinase C inhibition assay, PKC isoenzyme ε; type: biochemical; details: read-out: IC50 PKC ε
T5 construct: made in house; host or cells: baculovirus-insect cell expression system
T5 sequence (Q02156 1-737): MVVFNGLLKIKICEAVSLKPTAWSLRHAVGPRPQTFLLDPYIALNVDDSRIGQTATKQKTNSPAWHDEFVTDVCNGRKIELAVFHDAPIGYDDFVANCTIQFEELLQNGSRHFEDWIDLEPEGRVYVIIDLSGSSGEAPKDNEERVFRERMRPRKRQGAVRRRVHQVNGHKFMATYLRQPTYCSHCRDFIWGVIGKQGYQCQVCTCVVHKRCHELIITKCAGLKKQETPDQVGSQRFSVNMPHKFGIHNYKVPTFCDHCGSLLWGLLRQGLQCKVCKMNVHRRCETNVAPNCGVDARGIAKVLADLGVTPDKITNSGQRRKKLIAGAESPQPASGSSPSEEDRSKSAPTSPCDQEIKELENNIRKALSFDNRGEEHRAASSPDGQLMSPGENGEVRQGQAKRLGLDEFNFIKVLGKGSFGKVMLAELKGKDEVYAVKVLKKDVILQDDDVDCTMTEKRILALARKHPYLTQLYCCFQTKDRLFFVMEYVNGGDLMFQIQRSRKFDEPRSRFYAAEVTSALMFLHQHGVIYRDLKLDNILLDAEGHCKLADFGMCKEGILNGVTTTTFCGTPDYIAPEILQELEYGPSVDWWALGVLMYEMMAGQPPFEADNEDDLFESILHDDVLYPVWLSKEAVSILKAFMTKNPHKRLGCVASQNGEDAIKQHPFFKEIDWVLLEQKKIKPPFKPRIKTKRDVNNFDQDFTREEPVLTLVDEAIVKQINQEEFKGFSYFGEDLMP
Experimental: as §1, §2, §3, §4

[2] = molecular target: cAMP dependent protein kinase (PKA); experiment: cAMP Dependent Protein Kinase (PKA) Assay; type: biochemical
Experimental: Compounds found to be inhibitors of protein kinase C were tested for inhibitory activity against cAMP dependent protein kinase (PKA). This enzyme, like protein kinase C, plays an important role in cell-cell communication and is activated by a second messenger, cAMP. Secondary screening against PKA is useful for ascertaining the selectivity of the compounds of the invention.
The catalytic subunit of PKA (Sigma Chemical Company, St. Louis, Mo.) was mixed with buffer before addition of the inhibitor in dimethylsulfoxide (DMSO). Potential inhibitor compounds were added to the assay in dimethylsulfoxide at two concentrations to give final inhibitor concentrations of 30 and 150 μM, respectively. The assay was started by the addition of ^32 P-ATP and the reaction was allowed to proceed for 10 min before stopping with 25% trichloroacetic acid (TCA) and 1.0 mg/ml bovine serum albumin (BSA). Phosphorylated protein was then isolated by filtration and the radioactivity was counted by a beta scintillation counter.

PKC isoenzyme ζ = molecular target: T6, PKC isoenzyme ζ (Homo sapiens, UniProt Q05513); experiment: Protein kinase C inhibition assay, PKC isoenzyme ζ; type: biochemical; details: read-out: IC50 PKC .zeta.
T6 construct: made in house; host or cells: baculovirus-insect cell expression system
T6 sequence (Q05513 1-592): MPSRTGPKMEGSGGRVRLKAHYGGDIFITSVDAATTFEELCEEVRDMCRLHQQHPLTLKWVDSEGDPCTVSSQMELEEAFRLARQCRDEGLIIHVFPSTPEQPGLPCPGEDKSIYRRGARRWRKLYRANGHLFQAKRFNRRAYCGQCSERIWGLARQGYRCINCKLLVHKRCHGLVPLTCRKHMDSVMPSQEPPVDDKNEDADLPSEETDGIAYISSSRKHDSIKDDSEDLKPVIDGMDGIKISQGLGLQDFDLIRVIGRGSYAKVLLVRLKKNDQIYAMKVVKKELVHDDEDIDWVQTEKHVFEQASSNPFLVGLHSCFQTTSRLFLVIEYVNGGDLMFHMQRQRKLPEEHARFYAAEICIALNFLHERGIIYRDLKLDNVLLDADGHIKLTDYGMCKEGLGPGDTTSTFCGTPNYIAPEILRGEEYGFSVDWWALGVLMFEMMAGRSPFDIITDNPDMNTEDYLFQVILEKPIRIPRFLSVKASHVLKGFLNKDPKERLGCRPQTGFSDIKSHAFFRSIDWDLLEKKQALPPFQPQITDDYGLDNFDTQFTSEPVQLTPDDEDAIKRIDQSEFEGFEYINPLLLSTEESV
Experimental: as §1, §2, §3, §4

human neutrophils = experiment: Neutrophil Superoxide Anion (O2) Release Assay, PMA-stimulated; type: cell-based; details: Homo sapiens, Neutrophil, read-out: Neutrophil Superoxide Release IC50
Text: Phorbol-12,13-myristate acetate (PMA) stimulates O2 production in human neutrophils which in turn reduces cytochrome C. Reducing cytochrome C increases absorbance and the change in optical density (OD) is proportional to the amount of O2 produced by PMA stimulation. Inhibition is expressed as an IC50 value and is the amount of test compound that will inhibit fifty percent of the PMA-stimulated respiratory outburst, i.e. O2^31 production (Lherer et al. (1981) J. Clinical lnvest. 68:1314; Roberts et al. (1982) J. Immunological Methods 49:193).
Human donor blood in 0.38% Sodium Citrate was centrifuged for 10 minutes at 160 ×g at room temperature. Platelet-rich plasma was removed leaving the buffy coat and the red cell-enriched fraction. Saline with 0.38% Sodium Citrate was added to this fraction up to the original blood volume. The enriched blood sample was diluted 1:1 (v:v) with 3% dextran T500 (Pharmacia) in normal saline and placed in a 60 cc syringe, inverted over a beaker and allowed to settle 30 minutes at room temperature.
Leukocyte-enriched plasma was removed from the syringe, placed into 50 ml polypropylene conical centrifuge tubes and underlaid with 15-20 ml Lymphocyte Separation Medium (LSM Organon Technica). The tubes were centrifuged for 40 minutes at 500×g at room temperature. The plasma, buffy coat and LSM were aspirated off the pellets which contained red blood cells and neutrophils.
The pellets were vortexed and 10 ml ice-cold 0.2% NaCl was added to lyse the red blood cells while vortexing again for 10 seconds. Ice-cold 1.6% NaCl was added while vortexing for 10 seconds. The cells were combined from multiple tubes, centrifuged 10 min at 400×g at 4° C. This red cell lysis was repeated and the resulting neutrophil pellet was washed once in Reaction HBSS (GIBCO, HBSS with Ca^++ and Mg^++,.238% HEPES, 0.1% dextrose, 0.1% RIA grade bovine serum albumin, PH 7.2). The cells were resuspended in 1/5 the original blood volume with Reaction HBSS, counted and adjusted to 4.0×10^6 cells/ml at 4° C.
Duplicate samples of neutrophils were tested in 12×75 mm polypropylene tubes containing 0.25 ml of the neutrophil suspension. Cytochrome C mix (0.25 ml, 6.0 mg/ml cytochrome C type IV (Sigma) plus 1200 U/ml bovine liver catalase (Sigma) in Reaction HBSS described above) was added. PMA was added at 2×the final concentration in 0.5 ml of Reaction HBSS. PMA final test concentration were 0.0, 0.3, 9.0, 27.0, and 81.0 ng/ml. The tubes were vortexed and incubated for 10 minutes at 37° C. with shaking. After chilling for 5 minutes at 4° C. and centrifuging for 10 minutes at 4° C., 550×g, 0.5 ml of supernatant was removed from each tube. Normal saline (0.5 ml) was added to each 0.5 ml sample of supernatant and the absorbance of each sample was read at 550 nm on a spectrophotometer (Shimadzu). The PMA concentration which gives nearly maximal stimulation of superoxide release was determined.
The test samples of neutrophils were prepared as in the PMA dose response through addition of cytochrome C mix. Then 0.4 ml of Reaction HBSS as a control or test agent at 2.5×final test concentration was added and the tubes were vortexed and incubated for 30 minutes at 37° C. with shaking. PMA (0.1 ml) was added at a 10× concentration of the final concentration determined above. The samples were incubated for 10 minutes at 37° C. with shaking, chilled for 5 minutes at 4° C., and then centrifuged for 5 minutes at 550×g at 4° C. The supernatant (0.5 ml) was diluted with 0.5 ml normal saline as above and the absorbance was then determined at 550 nm. The percent change was calculated as follows: [formula] D-sphingosine (Sigma) used as reference standard.
Human neutrophils were first isolated according to Lherer et al. ((1981) J. Clinical Invest. 68:1314) and then tested for stimulation of superoxide anion release with phorbol--12,13-myristate acetate (PMA) in a dose-dependent manner. […]

T1 sequence (Q05655 whole entry): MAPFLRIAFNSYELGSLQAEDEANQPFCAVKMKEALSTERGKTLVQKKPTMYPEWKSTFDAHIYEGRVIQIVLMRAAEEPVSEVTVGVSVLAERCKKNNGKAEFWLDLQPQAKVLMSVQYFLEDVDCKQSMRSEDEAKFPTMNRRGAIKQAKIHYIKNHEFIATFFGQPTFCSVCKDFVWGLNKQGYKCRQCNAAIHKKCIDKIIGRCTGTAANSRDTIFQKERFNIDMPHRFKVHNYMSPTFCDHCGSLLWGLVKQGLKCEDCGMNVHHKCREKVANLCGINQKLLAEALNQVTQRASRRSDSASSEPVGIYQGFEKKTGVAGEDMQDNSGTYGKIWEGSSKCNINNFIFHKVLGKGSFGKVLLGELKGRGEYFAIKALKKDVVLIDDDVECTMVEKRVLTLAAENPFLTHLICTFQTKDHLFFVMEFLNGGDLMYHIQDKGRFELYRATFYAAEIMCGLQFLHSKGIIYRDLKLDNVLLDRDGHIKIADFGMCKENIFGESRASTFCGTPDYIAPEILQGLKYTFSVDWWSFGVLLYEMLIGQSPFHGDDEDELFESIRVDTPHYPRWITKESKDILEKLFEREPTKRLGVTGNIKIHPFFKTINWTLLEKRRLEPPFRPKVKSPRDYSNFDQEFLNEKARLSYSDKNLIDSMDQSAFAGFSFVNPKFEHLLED

Row | Compound | IC50 (PKC isoenzyme δ) [µM] | IC50 (PKC isoenzyme α) [µM] | IC50 [1] [µM] | IC50 (PKC isoenzyme γ) [µM] | IC50 (PKC isoenzyme βII) [µM] | IC50 (PKC isoenzyme ε) [µM] | IC50 ([2]; catalytic subunit of PKA) [µM] | effect on PKA activity ([2]; result in words) | IC50 (PKC isoenzyme ζ) [µM] | IC50 (human neutrophils; PMA-stimulated human neutrophils) [µM] | IC50 (human neutrophils) [µM]
1 | Cc1noc(NS(=O)(=O)c2ccc(N=C3C=C(Nc4ccc(S(=O)(=O)Nc5onc(C)c5C)cc4)C(=O)c4ccccc43)cc2)c1C [Compound 6b] | 39 | 35 | 16.7 | 29 | 50 | > 150 | > 150 | did not effect on PKA activity |  |  | 
2 | N=C(N)NS(=O)(=O)c1ccc(N=C2C=C(Nc3ccc(S(=O)(=O)NC(=N)N)cc3)C(=O)c3ccccc32)cc1 [Compound 3ab] | > 150 | 125 |  | 76 | > 150 | > 150 |  |  | > 150 |  | 
3 | O=C1C(Nc2ccc(S(=O)(=O)Nc3ncccn3)cc2)=CC(=Nc2ccc(S(=O)(=O)Nc3ncccn3)cc2)c2ccccc21 [Compound 6k] |  | 116 |  | 16 |  |  |  |  | 35 | 6.83 | 
4 | CCCCCCCCCCCCCCCCNS(=O)(=O)c1ccc(N=C2C=C(Nc3ccc(S(=O)(=O)NCCCCCCCCCCCCCCCC)cc3)C(=O)c3ccccc32)cc1 [Compound 6o] | 102 | 100 |  | 94 | 99 |  |  |  | > 150 |  | 
5 | CCCCCCCCCCCCC/C=C/[C@@H](O)[C@@H](N)CO [D--sphingosine, D-sphingosine, reference compound] |  |  |  |  |  |  |  |  |  |  | 2.85

From patent US5292737A, “N,N'-bis(sulfonamido)-2-amino-4-iminonaphthalen-1-ones and N,N'-bis(amido)-2-amino-4-iminonaphthalen-1-ones” (Sphinx Pharmaceuticals Corporation, priority 1992, dated 1994)
